Assays:
[1] = (§1) MMV: Anti-babesial activity assay. Parasite pRBCs at 1% parasitemia were cultivated in 100 ul with 96-well plates at 2.5% and 5% hematocrits. The parasites were cultivated in triplicate for 4 days without replacement of the medium for each concentration of the compound.; assay type: functional, Babesia bovis
[2] = as §1; assay type: functional, Babesia bigemina
[3] = as §1; assay type: functional, Babesia equi
[4] = as §1; assay type: functional, Babesia caballi

Structure (SMILES) | IC50 [1] [µM] | IC50 [2] [µM] | IC50 [3] [µM] | IC50 [4] [µM]
Cc1nc2ccccc2c(O)c1CC=C(Cl)Cl | 4.27 | 10.7 | 15.2 | 3.02
COCCNCC(O)Cn1c2ccc(Cl)cc2c2cc(Cl)ccc21 (centres undefined) | > 25 | 1.87 | 16.3 | 5.64
CCC(c1ccccc1)c1nn2c(-c3cccs3)nnc2s1 (centres undefined) | 18.6 | 16.4 | 7.87 | 15.8
O=C(Nc1ccc(-c2nc3ccccc3[nH]2)cc1)c1ccc(Cl)c(Cl)c1 | 18.5 | 4.13 | 6.24 | 3.86
CN(C)c1ccc(-c2nc3cc(N)ccc3[nH]2)cc1 | 0.083 | 1.04 | 3.61 | 7.59
COc1ccc(C2c3ccc4ccccc4c3Oc3ncn(CCCn4ccnc4)c(=N)c32)cc1OC (centres undefined) | 6.3 | 0.1 | 5.68 | 0.41
CC(C)(C)c1ccc(O)c(CNC2CCCCC2)c1 | 18.2 | 17 | 7 | 10
O=C(NNc1cc(N2CCCC2)nc(N2CCCC2)n1)c1ccccc1 | 4.58 | 13.9 | 5.3 | 5.5
CCOc1c(Cl)cc(CNCC(O)c2ccccc2)cc1OC (centres undefined) | 6.8 | 18.9 | 10 | 4.77
COc1cc2cc(C(=O)Nc3ccccc3)c(N)nc2cc1OC | 0.86 | 21.1 | 3.04 | 6.22
Cn1c(=O)c2cc(C(=O)NCCCN3CCCCCC3)sc2c2ccccc21 | 10 | 8.03 | 5.35 | 13.9
CCCCNc1nc(NC(C)(C)C)nc(NC(C)(C)C)n1 | 0.65 | 1 | 0.25 | 0.672
COc1ccc(CCN2C(=O)c3[nH]nc(-c4cc(Cl)c(C)cc4O)c3C2c2ccccc2F)cc1 (centres undefined) | 5.9 | 0.63 | 7.65 | 9.01
COc1cccc(C2(C)Nc3ccccc3-c3nc4ccccc4n32)c1 (centres undefined) | 13.9 | 25 | 10 | 1
Cc1ccc2nc(C)cc(Nc3cccc(C(F)(F)F)c3)c2c1 | 6.31 | 17.5 | 5.5 | 6.72
Oc1c(CN2CCN(c3ccccc3F)CC2)cc(Br)c2cccnc12 | 3.32 | 4.6 | 12.8 | 14.7
CCCc1c(C)nc2ccc(Br)cc2c1O | 16.5 | 11.9 | 13.3 | 0.1
O=C(Nc1ccc(CN2CCOCC2)cc1)c1ccc(-c2cc(Cl)ccc2Cl)o1 | 25 | 10 | 10 | 0.069
CC(C)(C)c1ccc(C(=O)Nc2c3c(nn2-c2cccc(Cl)c2)CSC3)cc1 | 4.21 | 0.72 | 8.96 | 17
CC1CCCCN1CCCNC(=O)c1ccc2c(c1)sc1nc(-c3ccc(F)cc3)cn12 (centres undefined) | 0.19 | 3.9 | 0.1 | 8.54
COc1ccc2nc(C)cc(Nc3cccc(O)c3)c2c1 | 13.4 | 25 | 4.19 | > 25

Structure (SMILES) | IC50 [1] [µM] | IC50 [2] [µM] | IC50 [3] [µM] | IC50 [4] [µM]
CC(C)(C)c1ccc(C(=O)Nc2nc3ccccc3s2)cc1 | 7 | 12.9 | 10 | 1
CCOc1ccc(-c2nc(NC(=O)c3cccc(S(C)(=O)=O)c3)sc2C)cc1 | 4.48 | 15 | 17.7 | 11.9
Cc1cc(N2CCCC2)nc(Nc2ccc(NC(=O)CCc3ccccc3)cc2)n1 | 15.5 | 13.4 | 3.02 | 3.53
CC(C)(C)C(=O)Nc1ccc(C(=O)Nc2cccc(-c3nc4ccccc4[nH]3)c2)cc1 | 0.32 | 0.08 | 5.19 | 2.19
COc1ccc(CN2CCN(Cc3ccccc3)CC2)c(O)c1 | 8.22 | 15.2 | 10 | 12
Cc1ccc(-c2nc3ccccc3o2)cc1NCc1cc(Cc2ccccc2)ccc1O | 7.13 | 1 | 9.67 | 1.05
CCCCN(CCCC)S(=O)(=O)c1ccc(NC(=O)c2ccco2)cc1 | 10 | 25 | 14.2 | 3.81
CCN(CC)CCNc1ncnc2c1[nH]c1ccc(Cl)cc12 | 17.6 | 16.2 | 3.42 | 2.64
CCOC(=O)c1cnc2ccc(OC)cc2c1Nc1ccc(N2CCN(C)CC2)cc1 | 0.061 | 1 | 10 | 8.25
Cc1[nH]c(-c2ccc(F)cc2)cc1C(=O)NC1CCN(Cc2ccccc2)CC1 | 0.303 | 4.29 | 0.58 | 8.21
CCOc1cc2c(cc1OCC)C(c1cc(Cl)c(O)c(OCC)c1)NCC2 (centres undefined) | 24 | > 25 | 12.3 | 13.4
O=C(Nc1ccc(-c2nc3cc(NC(=O)c4ccc(Cl)cc4)ccc3[nH]2)cc1)c1ccc(Cl)cc1 | 17 | 5.09 | 13.3 | 9.1
CC1CN(C(=O)c2sc3ccccc3c2Cl)CC(C)O1 (centres undefined) | > 25 | 18.2 | 23.1 | 19.2
CCN(Cc1ccccc1)C1CCN(Cc2cc(Br)ccc2O)CC1 | 18.2 | 20.2 | 3.03 | 6.51
Oc1ccc(Cl)cc1CNc1nc2ccccc2[nH]1 | 5.38 | 5.06 | 4.77 | 8.03
Cc1ccc(Nc2nc(N)c3ccccc3n2)cc1Cl | 6.31 | 9.87 | 16.5 | 10
CC(C)OCc1cc(CN2CCN(c3cccc(Cl)c3)CC2)c(O)c2ncccc12 | 0.59 | 0.92 | 1 | 0.073
CCCN(CCC)CCCNC(=O)c1cc2c(-c3ccc(OC)c(OC)c3)nn(C)c2s1 | 11 | 3.32 | 19.4 | 5.5
O=c1cc(NC2CCN(CCCc3ccccc3)CC2)c2cc(Cl)ccc2o1 | 18.2 | 10 | 8.77 | 16.5
Cc1ccc2c(C)nc(Nc3nc(C)cc(-c4ccccc4)n3)nc2c1 | 16.8 | 7.95 | 14.4 | 4.13
COc1ccc(C2C(C(=O)Nc3cccc(OC)c3)c3ccccc3C(=O)N2C2CCCCC2)cc1 (centres undefined) | 10 | 0.22 | 12.5 | 1

Structure (SMILES) | IC50 [1] [µM] | IC50 [2] [µM] | IC50 [3] [µM] | IC50 [4] [µM]
COc1cc(-c2nc(-c3ccc(Sc4ccccc4)cc3)c(-c3ccccc3)[nH]2)cc(OC)c1O | 7.54 | 16.5 | 12 | 3.45
O=C(CCc1ccco1)NC1CCN(CC2(c3ccc(Cl)cc3)CCC2)CC1 | 5.06 | 1.87 | 3.39 | > 25
CC(=O)NCCc1nc2ccccc2n1Cc1ccc(C(C)C)cc1 | 7.96 | 8.2 | 1 | 10
COc1cc(OC)cc(N2C(=O)N(Cc3ccc(C(C)(C)C)cc3)c3ccccc3S2(=O)=O)c1 | 1 | 0.19 | 13.3 | 7.54
FC(F)(F)c1cccc(Nc2nc3ccccc3nc2Nc2cccc(C(F)(F)F)c2)c1 | 0.14 | 3.45 | 4.13 | 4.27
CCOc1ccc(-n2cc(-c3ccccc3)c3c(SCc4cc(C)ccc4C)ncnc32)cc1 | 14.6 | 10.7 | 13.9 | 16.5
CCOc1c(Br)cc(C2C(C(=O)OC)=CN(C)C=C2C(=O)OC)cc1OC | 0.072 | 0.25 | 9.18 | 11.9
CCOc1ccc2nc(C)cc(Nc3ccc(N(C)C)cc3)c2c1 | 0.056 | 0.065 | 15.5 | 6.08
CN1CCN(c2nc(Nc3ccc(O)cc3)nc3ccccc23)CC1 | 16.8 | 10.2 | 15.6 | 9
COc1ccc(C2c3ccc4ccccc4c3Oc3ncn(CCCN(C)C)c(=N)c32)cc1 (centres undefined) | 0.052 | 0.033 | 0.49 | 7.26
Clc1cc(Br)ccc1-c1ccc(CNCC2CCNCC2)o1 | 0.33 | 4.19 | 5.93 | 12.4
O=C1CC(O)(C(F)(F)C(F)(F)F)Oc2ccccc21 (centres undefined) | > 25 | 16.3 | 0.65 | 0.8
CCOC(=O)C1=C(C)N=c2sc(=Cc3cc(Cl)ccc3O)c(=O)n2C1c1ccc(OC)cc1 (centres undefined) | 18.1 | 14.1 | 14.6 | 15.9
COc1ccc(C2Sc3ccccc3N=C3C2=C(O)c2ccccc23)cc1 (centres undefined) | 13.9 | 4.09 | 15.8 | 7.09
Nc1ccn([C@@H]2O[C@H](CO)[C@@H](O)[C@H]2O)c(=O)n1 [CYTIDINE] | 7.31 | 19.1 | 14.1 | 4.27
COc1ccc(C(=O)Nc2ccc(Cl)cc2C(=O)Nc2ccncc2)cc1 | 3.53 | 0.65 | 10 | 6.4
Cc1cccc(N2C(=O)C3C(C2=O)C2(c4ccccc4)C(=O)C3(c3ccccc3)C(c3ccc4c(c3)OCO4)=C2c2ccc3c(c2)OCO3)c1 (centres undefined) | 17 | 25 | 13.9 | 5.5
COc1ccc(-c2cn3c(C(=O)Nc4ccccc4Cl)c(-c4ccccc4)c4c3n2CCCC4)cc1 | 0.77 | 21.6 | 1 | 12.5
Fc1ccc2[nH]c3c(NCCCN4CCOCC4)ncnc3c2c1 | 19.7 | 17.1 | 2.88 | 14.7

Source: ChEMBL document CHEMBL3301464, “MMV Malaria Box anti-babesial screening”
